Test results from ChEMBL document CHEMBL1833833, “Design and synthesis of long acting inhaled corticosteroids for the treatment of asthma” (Bioorg Med Chem Lett, 2011).
Converted amounts (≈) assume the structure as drawn. The source made the active and inactive calls. No cut-off for these calls is given here.

Key:
Rattus norvegicus [1] = experiment: Unbound clearance in rat at 0.5 mg/kg, iv; assay type: ADME, organism-based; parameters: dose 0.5 mg/kg, route intravenous; details: in vivo
[2] = Half life in rat; assay type: ADME, organism-based; details: in vivo
Liver microsomes = experiment: Metabolic stability of compound in human liver microsomes assessed as unbound intrinsic clearance by equilibrium dialysis; assay type: ADME, Microsome
[3] = Metabolic stability of compound in human liver microsomes assessed as intrinsic clearance by equilibrium dialysis; assay type: ADME, Microsome
Blood = experiment: Inhibition of TNFalpha release in LPS-stimulated human whole blood by ELISA assay; assay type: functional, tissue-based
[4] = Oral bioavailability in rat at 2 mg/kg; assay type: ADME, organism-based; details: in vivo
Rattus norvegicus [5] = experiment: Clearance in rat at 0.5 mg/kg, iv; assay type: ADME, organism-based; parameters: dose 0.5 mg/kg, route intravenous; details: in vivo
[6] = Metabolic stability in human liver microsomes assessed as phase 2 glucuronidation in presence of UDPGA; assay type: ADME, Microsome; details: read-out: Stability
PBMC = experiment: Inhibition of TNFalpha release in human PBMC by ELISA assay; assay type: functional, cell-based
Glucocorticoid receptor = target: T1, Glucocorticoid receptor (Homo sapiens, UniProt P04150)
T1 sequence (P04150 whole entry): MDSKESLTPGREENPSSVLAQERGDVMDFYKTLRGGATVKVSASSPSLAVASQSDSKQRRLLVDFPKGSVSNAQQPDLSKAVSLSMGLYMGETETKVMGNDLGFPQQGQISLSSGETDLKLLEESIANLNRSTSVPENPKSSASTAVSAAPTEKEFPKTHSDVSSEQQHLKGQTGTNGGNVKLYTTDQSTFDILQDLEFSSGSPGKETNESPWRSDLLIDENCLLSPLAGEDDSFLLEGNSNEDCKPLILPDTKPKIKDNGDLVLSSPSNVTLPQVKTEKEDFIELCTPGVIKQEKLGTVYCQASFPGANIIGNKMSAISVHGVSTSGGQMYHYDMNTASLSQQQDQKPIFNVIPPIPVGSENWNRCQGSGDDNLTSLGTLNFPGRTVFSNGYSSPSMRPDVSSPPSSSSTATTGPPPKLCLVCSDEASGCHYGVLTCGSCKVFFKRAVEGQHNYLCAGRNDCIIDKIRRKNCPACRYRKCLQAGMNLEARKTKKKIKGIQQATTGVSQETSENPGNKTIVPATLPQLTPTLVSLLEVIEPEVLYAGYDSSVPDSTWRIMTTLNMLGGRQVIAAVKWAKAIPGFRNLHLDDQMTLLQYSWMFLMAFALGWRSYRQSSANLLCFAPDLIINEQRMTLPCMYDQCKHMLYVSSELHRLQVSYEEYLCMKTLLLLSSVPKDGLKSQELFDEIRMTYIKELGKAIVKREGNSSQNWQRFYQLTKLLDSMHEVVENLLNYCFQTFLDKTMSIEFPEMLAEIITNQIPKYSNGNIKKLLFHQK
Description: Agonist activity at GR in human SW1353 cells transfected with luciferase gene linked to MMTV promoter assessed as luciferase transactivation activity

[7] = Antiinflammatory activity in rat assessed as inhibition of LPS-induced lung neutrophilia at 10 ug, intratracheally administered 4 hr prior to LPS challenge measured after 1 hr; assay type: functional, Neutrophil
[8] = target: T2, Estrogen receptor (Homo sapiens) (UniProt P03372); experiment: Antagonist activity at human ER; assay type: functional
T2 sequence (whole entry): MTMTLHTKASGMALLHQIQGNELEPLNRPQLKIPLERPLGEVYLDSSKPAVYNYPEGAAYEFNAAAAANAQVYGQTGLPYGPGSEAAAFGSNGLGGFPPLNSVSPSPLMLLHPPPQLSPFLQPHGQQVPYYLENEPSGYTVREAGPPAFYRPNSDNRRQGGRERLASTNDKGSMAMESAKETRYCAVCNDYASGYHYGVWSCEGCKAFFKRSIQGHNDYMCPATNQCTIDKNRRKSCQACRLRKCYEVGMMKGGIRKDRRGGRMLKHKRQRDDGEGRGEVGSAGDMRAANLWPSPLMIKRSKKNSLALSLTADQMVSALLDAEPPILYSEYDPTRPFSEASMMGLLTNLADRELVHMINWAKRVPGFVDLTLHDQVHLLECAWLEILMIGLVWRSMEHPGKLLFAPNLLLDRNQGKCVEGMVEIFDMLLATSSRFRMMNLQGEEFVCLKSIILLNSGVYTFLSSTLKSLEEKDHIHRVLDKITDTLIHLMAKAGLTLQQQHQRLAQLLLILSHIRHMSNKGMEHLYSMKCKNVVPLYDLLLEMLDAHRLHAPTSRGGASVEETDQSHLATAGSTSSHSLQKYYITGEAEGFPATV

[9] = target: T3, Androgen receptor (Homo sapiens) (UniProt P10275); experiment: Agonist activity at human AR; assay type: functional
T3 sequence (whole entry): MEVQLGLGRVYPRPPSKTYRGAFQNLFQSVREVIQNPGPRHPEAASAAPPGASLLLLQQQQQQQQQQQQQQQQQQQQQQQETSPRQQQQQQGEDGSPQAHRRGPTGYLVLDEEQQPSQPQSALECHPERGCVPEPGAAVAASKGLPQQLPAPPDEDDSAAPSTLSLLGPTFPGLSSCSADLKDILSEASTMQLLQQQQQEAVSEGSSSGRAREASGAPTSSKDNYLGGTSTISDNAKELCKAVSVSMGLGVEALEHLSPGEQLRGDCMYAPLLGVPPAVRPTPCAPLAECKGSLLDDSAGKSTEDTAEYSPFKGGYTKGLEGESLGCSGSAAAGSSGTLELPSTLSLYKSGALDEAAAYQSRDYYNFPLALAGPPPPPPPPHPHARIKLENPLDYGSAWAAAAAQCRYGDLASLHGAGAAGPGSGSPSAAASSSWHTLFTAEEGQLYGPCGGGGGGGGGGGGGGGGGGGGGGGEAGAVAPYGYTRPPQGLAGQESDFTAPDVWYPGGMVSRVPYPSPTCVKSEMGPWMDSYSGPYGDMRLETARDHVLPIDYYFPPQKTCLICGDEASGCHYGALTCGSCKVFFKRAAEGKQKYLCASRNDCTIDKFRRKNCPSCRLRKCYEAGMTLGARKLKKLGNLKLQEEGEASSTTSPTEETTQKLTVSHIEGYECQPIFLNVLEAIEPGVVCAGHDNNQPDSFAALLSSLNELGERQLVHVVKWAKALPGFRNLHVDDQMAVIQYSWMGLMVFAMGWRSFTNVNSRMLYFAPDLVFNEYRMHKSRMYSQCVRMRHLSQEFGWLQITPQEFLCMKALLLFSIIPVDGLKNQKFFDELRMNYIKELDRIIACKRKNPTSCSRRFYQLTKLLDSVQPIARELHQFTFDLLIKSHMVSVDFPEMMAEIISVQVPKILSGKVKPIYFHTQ

[10] = Solubility of compound in simulated lung fluid by dialysis bag method; assay type: physicochemical
[11] = Antiinflammatory activity in intratracheally dosed rat assessed as effective dose for inhibition of LPS-induced lung neutrophilia; assay type: functional, Neutrophil
[12] = target: T2, Estrogen receptor (Homo sapiens); experiment: Agonist activity at human ER; assay type: functional
[13] = Antiinflammatory activity in rat assessed as inhibition of LPS-induced lung neutrophilia at 10 ug, intratracheally administered 4 hr prior to LPS challenge measured after 24 hrs; assay type: functional, Neutrophil
[14] = target: T3, Androgen receptor (Homo sapiens); experiment: Antagonist activity at human AR; assay type: functional
[15] = Antiinflammatory activity in rat assessed as inhibition of LPS-induced lung neutrophilia at 10 ug, intratracheally administered 4 hr prior to LPS challenge measured after 8 hrs; assay type: functional, Neutrophil
[16] = Antiinflammatory activity in rat assessed as inhibition of LPS-induced lung neutrophilia at 10 ug, intratracheally administered 4 hr prior to LPS challenge measured after 4 hrs; assay type: functional, Neutrophil
[17] = Antiinflammatory activity in rat assessed as inhibition of LPS-induced lung neutrophilia 10 ug, intratracheally administered 1 hr prior to LPS challenge measured after 4 hrs; assay type: functional, Neutrophil
[18] = Antiinflammatory activity in rat assessed as inhibition of LPS-induced lung neutrophilia 10 ug, intratracheally administered 1 hr prior to LPS challenge measured after 8 hrs; assay type: functional, Neutrophil
Rattus norvegicus [19] = experiment: Antiinflammatory activity in rat assessed as inhibition of LPS-induced lung neutrophilia 10 ug, intratracheally administered 1 hr prior to LPS challenge measured after 1 hr; assay type: functional
[20] = target: T4, Glucocorticoid receptor (Homo sapiens) (UniProt P04150)
T4 sequence (whole entry): T1 sequence (P04150 whole entry)
Description: Agonist activity at human GR assessed as dissociation half life

Rattus norvegicus [21] = experiment: Antiinflammatory activity in rat assessed as inhibition of LPS-induced lung neutrophilia 10 ug, intratracheally administered 1 hr prior to LPS challenge measured after 2 hrs; assay type: functional
[22] = Antiinflammatory activity in rat assessed as effective dose for inhibition of LPS-induced lung neutrophilia administered intratracheally 4 hr prior to LPS challenge; assay type: functional, Neutrophil

CSc1cccc(Sc2ccc([C@@H]3O[C@@H]4C[C@H]5[C@@H]6C[C@H](F)C7=CC(=O)C=C[C@]7(C)[C@@]6(F)[C@@H](O)C[C@]5(C)[C@]4(C(=O)CO)O3)cc2)c1
CL free (Rattus norvegicus [1]): > 18000 mL/min/kg
half-life [2]: 1.9 h
CL free (Liver microsomes): > 3080 µL/min/mg
microsomal CLint [3]: 154 µL/min/mg
IC50 (Blood): 47400 pM
bioavailability [4]: < 0.5%
clearance (Rattus norvegicus [5]): 26 mL/min/kg
microsomal CLint [6]: < 3.5 µL/min/mg
IC50 (PBMC): 100 pM

C[C@]12C=CC(=O)C=C1[C@@H](F)C[C@H]1[C@@H]3C[C@H]4O[C@@H](c5ccc(SCc6ccccc6)cc5)O[C@@]4(C(=O)CO)[C@@]3(C)C[C@H](O)[C@@]12F
IC50 (PBMC): 160 pM

C[C@]12C=CC(=O)C=C1[C@@H](F)C[C@H]1[C@@H]3C[C@H]4O[C@@H](c5ccc(CSc6ccccc6)cc5)O[C@@]4(C(=O)CO)[C@@]3(C)C[C@H](O)[C@@]12F
IC50 (PBMC): 220 pM

C[C@@H]1C[C@H]2[C@@H]3C[C@H](F)C4=CC(=O)C=C[C@]4(C)[C@@]3(F)[C@@H](O)C[C@]2(C)[C@@]1(OC(=O)c1ccco1)C(=O)SCF [FLUTICASONE FUROATE]
IC50 (Blood): 43000 pM
IC50 (PBMC): 50 pM

C[C@]12C=CC(=O)C=C1[C@@H](F)C[C@H]1[C@@H]3C[C@H]4O[C@@H](c5ccc(OC6=CCC(=O)N=N6)cc5)O[C@@]4(C(=O)CO)[C@@]3(C)C[C@H](O)[C@@]12F
EC50 (Glucocorticoid receptor): 21100 pM
IC50 (PBMC): 120 pM

C[C@]12C=CC(=O)C=C1[C@@H](F)C[C@H]1[C@@H]3C[C@H]4O[C@@H](c5ccc(CSc6ccc(O)c(Cl)c6)cc5)O[C@@]4(C(=O)CO)[C@@]3(C)C[C@H](O)[C@@]12F
CL free (Rattus norvegicus [1]): > 59000 mL/min/kg
half-life [2]: 2.8 h
inhibition (INH) [7]: 52%
microsomal CLint [3]: 122 µL/min/mg
Activity [8]: inactive
IC50 (Blood): 8730 pM
bioavailability [4]: < 1%
clearance (Rattus norvegicus [5]): 84 mL/min/kg
Activity [9]: inactive
microsomal CLint [6]: 100 µL/min/mg
solubility [10]: 0.36 µg/mL (≈ 0.535 µM)
ED50 [11]: 36 µg
Activity [12]: inactive
IC50 (PBMC): 30 pM
inhibition (INH) [13]: 24%
Activity [14]: inactive
inhibition (INH) [15]: 46%
inhibition (INH) [16]: 59%

CCCC1O[C@@H]2C[C@H]3[C@@H]4CCC5=CC(=O)C=C[C@]5(C)[C@H]4[C@@H](O)C[C@]3(C)[C@]2(C(=O)CO)O1 (stereo partly drawn) [BUDESONIDE]
IC50 (Blood): 8460 pM
IC50 (PBMC): 960 pM

C[C@]12C=CC(=O)C=C1[C@@H](F)C[C@H]1[C@@H]3C[C@H]4O[C@@H](c5ccc(Cc6ccccc6)cc5)O[C@@]4(C(=O)CO)[C@@]3(C)C[C@H](O)[C@@]12F
IC50 (PBMC): 170 pM

C[C@]12C=CC(=O)C=C1[C@@H](F)C[C@H]1[C@@H]3C[C@H]4O[C@@H](c5ccc(CN6CCOCC6)cc5)O[C@@]4(C(=O)CO)[C@@]3(C)C[C@H](O)[C@@]12F
IC50 (PBMC): 1810 pM

C[C@]12C=CC(=O)C=C1[C@@H](F)C[C@H]1[C@@H]3C[C@H]4O[C@@H](c5ccc(CSc6ccc(O)cc6)cc5)O[C@@]4(C(=O)CO)[C@@]3(C)C[C@H](O)[C@@]12F
IC50 (PBMC): 60 pM

C[C@]12C=CC(=O)C=C1[C@@H](F)C[C@H]1[C@@H]3C[C@H]4O[C@@H](c5ccc(Oc6ccccc6)cc5)O[C@@]4(C(=O)CO)[C@@]3(C)C[C@H](O)[C@@]12F
IC50 (PBMC): 90 pM

CCC(=O)O[C@]1(C(=O)SCF)[C@H](C)C[C@H]2[C@@H]3C[C@H](F)C4=CC(=O)C=C[C@]4(C)[C@@]3(F)[C@@H](O)C[C@@]21C [FLUTICASONE PROPIONATE]
CL free (Rattus norvegicus [1]): 1800 mL/min/kg
inhibition (INH) [17]: 8%
half-life [2]: 1.1 h
CL free (Liver microsomes): 300 µL/min/mg
microsomal CLint [3]: 51 µL/min/mg
inhibition (INH) [18]: 10%
IC50 (Blood): 9300 pM
bioavailability [4]: < 2%
clearance (Rattus norvegicus [5]): 56 mL/min/kg
inhibition (INH) (Rattus norvegicus [19]): 29%
microsomal CLint [6]: < 3.5 µL/min/mg
T1/2 [20]: 9.07 h
solubility [10]: 0.32 µg/mL (≈ 0.639 µM)
IC50 (PBMC): 100 pM
inhibition (INH) (Rattus norvegicus [21]): 11%
ED50 [22]: 3 µg

C[C@]12C=CC(=O)C=C1[C@@H](F)C[C@H]1[C@@H]3C[C@H]4O[C@@H](c5ccc(Cc6ccc(O)cc6)cc5)O[C@@]4(C(=O)CO)[C@@]3(C)C[C@H](O)[C@@]12F
IC50 (PBMC): 40 pM

C[C@]12C=CC(=O)C=C1[C@@H](F)C[C@H]1[C@@H]3C[C@H]4O[C@@H](c5ccc(CSc6cccc(O)c6)cc5)O[C@@]4(C(=O)CO)[C@@]3(C)C[C@H](O)[C@@]12F
IC50 (PBMC): 150 pM

C[C@]12C=CC(=O)C=C1[C@@H](F)C[C@H]1[C@@H]3C[C@H]4O[C@@H](c5ccc(-c6ccccc6)cc5)O[C@@]4(C(=O)CO)[C@@]3(C)C[C@H](O)[C@@]12F
IC50 (PBMC): 410 pM
